# Data taken from patent US20070093520A1, “Method of treatment of diarrhea-predominant irritable bowel syndrome in a subject” (priority 2005, published 2007).
# Experiments:
# [1] = test system: diarrhea-predominant IBS subjects; assay: 3007 Study: laboratory marked abnormalities; type: in vivo, human; conditions: Study 3007
# Method: Subjects were encouraged to fast at least six hours prior to laboratory samples being drawn. Laboratory safety tests were performed at Day 1 (Visit 5 of the core protocol), Months 1, 6, and 12 (end of study or at the early termination visit). Blood and urine were analyzed for:
# • Prothrombin time (PT) (only before colonoscopy, as per clinical practice) • Hemoglobin • Hematocrit • Red blood cell count (RBC) • White blood cell count (WBC) • Differential blood count • Platelet count Blood Chemistry: • Glucose • Creatinine • Blood urea nitrogen (BUN) • Creatine kinase (CK) • Alkaline phosphatase (AP) • Total bilirubin • Alanine aminotransferase (ALT/SGPT) • Aspartate aminotransferase (AST/SGOT) • Gamma-glutamyltransferase (GGT) • Triglycerides • Cholesterol • Total protein • Uric acid • Sodium • Potassium • Calcium • Quantitative beta human chorionic gonadotrophin (β-HCG) (at every visit) • Thyroid stimulating hormone (visit 1 only) Urine: • Urobilinogen • Blood • Bilirubin • Ketones • Glucose • Protein • Nitrite • Leukocytes • pH • Dipstick pregnancy test (Day 1 only, if necessary) Stool: • Parasite, ova and stool culture (visit 1 only, if necessary) • Occult blood (analysis at each visit)
# Laboratory data are presented in conventional units. Only one central laboratory was used for each laboratory parameter, thus no laboratory normalization was carried out.
# For Study 3007, “baseline” was defined as Visit 1 of core Study 3006 for subjects randomized to the cilansetron treatment group in Study 3006 and as the last post-Baseline visit of Study 3006 (normally Visit 5) for subjects randomized to the placebo group in Study 3006.
# Summary statistics are presented for all hematology and chemistry parameters at each analysis timepoint and at Endpoint, as well as for change from Baseline results at each post-Baseline analysis timepoint and at Endpoint. For laboratory assessments that were gender specific, summaries were presented separately for males and females. A listing of laboratory assessments for hematology, chemistry, and urinalysis parameters is presented. The following categories were used for the urinalysis parameter summaries: • pH: ≦5.0, >5.0 to ≦6.0, >6.0 to ≦7.0, and >7.0 • glucose, total protein, ketones, total bilirubin, nitrite, RBC (erythrocytes), and urobilinogen: negative and other (consisting of ‘trace’, ‘positive’, ‘+’, ‘++’, ‘+++’, or ‘++++’) • WBC (leukocytes): negative, positive
# The overall incidence of post-Baseline marked abnormalities for hematology and chemistry parameters is also presented. Where applicable, the incidence of post-Baseline marked abnormalities is presented separately by whether the value was abnormally high or low. Any post-Baseline markedly abnormal laboratory measurement collected after the first dose of cilansetron and within 30 days of the last dose of cilansetron was included. However, assessments which were done more than 30 days after last subject visit and after database lock were not included in the analysis. Subjects were counted at most once for the post-Baseline marked abnormality for each laboratory parameter.
# [2] = test system: subjects with ROME II defined IBS-D; assay: 5050 Study: double-blind placebo-controlled prn safety study, adverse events and withdrawals; type: in vivo, human; conditions: Study 5050
# Method: The 5050 Study was a double-blind, randomized, placebo-controlled study to evaluate the long-term safety and tolerability of cilansetron 2 mg taken on an as needed (prn) basis for 1 year by male and female subjects with ROME II defined IBS-D. The study was performed in 68 centers. Patients were randomized in a 3:1 ratio to receive either cilansetron 2 mg prn or placebo, up to 3 times a day. Safety parameters were explored by comparing the double-blind groups, average daily doses and treatment exposure. Patient visits were scheduled as follows: Visit 1 (pretreatment), Visit 2 (Day 1), Visit 3 (Month 1), Visit 4 (Month 3), Visit 5 (Month 6), Visit 6 (Month 9), and Visit 7 (Month 12). Safety assessments included: adverse events (AEs)/serious adverse events (SAES); laboratory parameters (pretreatment visit and at Months 1, 6, and 12); electrocardiograms (pretreatment visit and at Months 1, 6, and 12); vital signs (at each visit); physical examinations and body weight (pretreatment visit and at Month 12); prior and concomitant medication use (each visit and/or through spontaneous reporting); stool cards for occult blood (every visit except Visit 1). The number of tablets taken per day was recorded daily through a validated interactive voice response system. Patients who met the ROME criteria for IBS and ROME II criteria for the diarrhea predominant subpopulation were included in the study. Patients with acute colitis of any etiology, history of chronic colitis of any etiology, or a history of intestinal obstruction, stricture, toxic megacolon, gastrointestinal (GI) perforation, or fecal impaction were excluded from the study.
# For Study 5050, of a total of 402 patients randomized to treatment, 400 received study medication and 395 were included in the safety analysis (cilansetron, N=301; placebo, N=94). Five patients were excluded because of a lack of a post-baseline safety evaluation. Thirty nine percent of patients in the cilansetron group and 56% in the placebo group withdrew from the study; the differences in withdrawals largely were due to lack of efficacy (15% v. 34%, respectively), followed by other unspecified reasons (16% v. 19%, respectively) and AEs (10% v. 9%, respectively). Most patients (57%) were in the 41 to 64 year age category and 72% of all patients were female.
# [3] = in vivo
# Method: One subject took fluvoxamine while taking cilansetron 2 mg TID.
compound,measurement,setting,value
"Cc1nccn1C[C@H]1CCc2c(c3cccc4c3n2CCC4)C1=O [cilansetron, (R)-(−)-4,5,6,8,9,10-hexahydro-10-[(2-methyl-1H-imidazol-1-yl)methyl]-11H-pyrido-[3,2,1-jk]-carbazol-11-one]",post-Baseline markedly high CK,[1],3%
same,post-Baseline markedly high eosinophils,[1],1%
same,post-Baseline markedly high triglycerides,[1],3%
same,post-Baseline markedly high uric acid,[1],1%
same,post-Baseline markedly high GGT,[1]; females,5%
same,post-Baseline markedly high GGT,[1]; males,7%
same,post-Baseline markedly high GGT,[1]; overall,6%
same,Treatment-related AE: Alanine aminotransferase increased,[2]; 2 mg prn (N = 301),9 (3) N (%)
same,Treatment-related AE: Diarrhea (not otherwise specified),[2]; 2 mg prn (N = 301),5 (2) N (%)
same,Treatment-related AE: Flatulence,[2]; 2 mg prn (N = 301),6 (2) N (%)
same,Treatment-related AE: Headache (not otherwise specified),[2]; 2 mg prn (N = 301),13 (4) N (%)
same,Treatment-related AE: Nausea,[2]; 2 mg prn (N = 301),15 (5) N (%)
same,Treatment-related AE: Rectal Hemmorhage,[2]; 2 mg prn (N = 301),8 (3) N (%)
same,treatment-related AE: abdominal pain not otherwise specified,[2]; 2 mg prn (N = 301),16 (5) N (%)
same,treatment-related AE: constipation,[2]; 2 mg prn (N = 301),24 (8) N (%)
same,AE incidence: GI and abdominal pain (excluding oral and throat),[2]; cilansetron group,12%
same,AE incidence: GI atonic and hypomotility disorders,[2]; cilansetron group,11%
same,AE incidence: nausea and vomiting,[2]; cilansetron group,7%
same,AE leading to study discontinuation: abdominal pain,[2]; cilansetron group,2%
same,AE leading to study discontinuation: constipation,[2]; cilansetron group,2%
same,treatment-related AE: abdominal pain not otherwise specified,[2]; cilansetron group,5%
same,treatment-related AE: constipation,[2]; cilansetron group,8%
same,withdrawals due to AEs,[2]; cilansetron group,10%
same,withdrawals due to lack of efficacy,[2]; cilansetron group,15%
same,increase of cilansetron plasma levels,[3],approximately six to seven
